Measurements published in paper PMC10696402 (The Journal of Biological Chemistry, 2023).
Several values for one entry are separate records, joined by “and”; a condition that tells them apart may be missing. Equal entries are not always repeated. Entries after “also recorded” stand apart in the source; their conditions may differ. Where two headings read alike, the source gives them in different places.

Legend:
WT CYP2C9 [1] = target: T1, WT CYP2C9 (Homo sapiens, UniProt P11712); assay: Diclofenac 4′-hydroxylation kinetics, recombinant WT CYP2C9; conditions: for CLint, diclofenac 4′-hydroxylation: Vmax/Km; for Km at 7 min: human, pH 7.4, Km, diclofenac 4′-hydroxylation
Method: (§1) Incubations were performed in phosphate buffer (100 μl; 0.1 M, pH 7.4) and contained WT or mutant CYP2C9 protein, 3 pmol/ml. […] After preincubation at 37 °C for 5 min, reactions were initiated by the addition of NADPH (1 mM final concentration) containing MgCl2 (4 mM). Following incubation at 37 °C for 30 min, reactions were terminated by the addition of 11.6 M HClO4 (1 μl). Samples were cooled on ice and then centrifuged at 5000g, 4 °C for 10 min. An aliquot (20 μl) of the supernatant fraction was injected into the HPLC column. […] The mobile phase comprised 25 mM phosphate buffer containing 0.02% triethylamine and 5% acetonitrile (phase A) and acetonitrile (phase B), delivered at a flow rate of 1 ml/min. […] Given the favorable sensitivities of these assays, rates of metabolite formation below the lower limits of quantification may be considered negligible.
(§2) The mobile phase comprised 10 mM ammonium formate (pH 3) in 5% acetonitrile (mobile phase A) and acetonitrile (mobile phase B) delivered at a flow rate of 1 ml/min.
Kinetic data are presented as the mean (± SD) of four separate experiments. Unless otherwise stated, metabolite formation followed sigmoidal kinetics, which was confirmed by comparison of goodness-of-fit parameters from fitting rate of metabolite formation versus substrate concentration data with the equations for empirical kinetic models (Michaelis–Menten, substrate inhibition, biphasic, and positive cooperativity) using the program GraphPad Prism version 7.01 (https://www.graphpad.com, GraphPad Software, Inc). […] CLint, which reflects reaction efficiency, was calculated as Vmax/Km.

CYP2C9 Lys206Ala mutant [2] = target: T2, CYP2C9 Lys206Ala mutant (Homo sapiens, UniProt P11712, K206A); assay: Diclofenac 4′-hydroxylation kinetics, Lys206Ala mutant; conditions: for CLint, diclofenac 4′-hydroxylation: Vmax/Km; for Km at 7 min: human, pH 7.4, Km, diclofenac 4′-hydroxylation
Method: (§3) Mutations were confirmed by DNA sequencing using an Applied Biosystems 3130xl Genetic Analyzer with BigDye Terminator v3.1 Chemistry (Applied Biosystems).
(§4) WT and mutant CYP2C9 proteins and NADPH-CPR were coexpressed according to Boye et al. ([61]). Plasmids were transformed into E. coli DH5R competent cells and single isolated colonies were grown by shaking at 37 °C overnight in Luria-Bertani medium containing ampicillin (100 mg/L) and chloramphenicol (50 mg/L). Overnight cultures of each clone were diluted 1:100 in Terrific broth containing 0.2% Bacto Peptone (w/v), ampicillin (100 mg/L), and chloramphenicol (50 mg/L). Cells were grown at 37 °C in a rotary shaker until the absorbance at 600 nm reached 0.7, when δ-aminolevulinic acid and isopropyl-α-D-thiogalactopyroside were added to final concentrations of 0.5 mM and 1 mM, respectively. Cultures were then grown at 30 °C with shaking at 200 rpm for 24 h. Bacterial cells were harvested, and membrane fractions were prepared as described by Gillam et al. ([62]). The P450 content of bacterial membranes was quantified spectrophotometrically using established methods ([63], [64], [65]). CPR content was measured spectrophotometrically as the NADPH-cytochrome c reductase activity ([66]).
as §1, §2
(§5) Kinetic data are presented as the mean (± SD) of four separate experiments. […] CLint, which reflects reaction efficiency, was calculated as Vmax/Km.

[3] = test system: CYP2C9 Phe114 substituted with Ile and Leu; conditions: cited from earlier work
CYP2C9 = conditions: cited from earlier work
CYP2C9 Lys206Ala mutant [4] = target: T2, CYP2C9 Lys206Ala mutant; conditions: for Vmax, flurbiprofen 4′-hydroxylation / CLint, flurbiprofen 4′-hydroxylation: Lys206Ala; for CLint, flurbiprofen 4′-hydroxylation: Vmax/Km
Method: as §3, §4, §1, §5

CYP2C9 homology model = conditions: homology model based on rabbit CYP2C5 crystal structure; cited from earlier work
CYP2C9 Lys206Ala mutant [5] = target: T2, CYP2C9 Lys206Ala mutant; assay: in vitro; conditions: pH 7.4, Km, flurbiprofen 4′-hydroxylation
Method: as §3, §4, §1, §5

WT CYP2C9 [6] = target: T1, WT CYP2C9; conditions: for Vmax, flurbiprofen 4′-hydroxylation / CLint, flurbiprofen 4′-hydroxylation: WT; for CLint, flurbiprofen 4′-hydroxylation: Vmax/Km
Method: (§6) Incubations were performed in phosphate buffer (100 μl; 0.1 M, pH 7.4) and contained WT or mutant CYP2C9 protein, 3 pmol/ml. […] After preincubation at 37 °C for 5 min, reactions were initiated by the addition of NADPH (1 mM final concentration) containing MgCl2 (4 mM). […] Samples were cooled on ice and then centrifuged at 5000g, 4 °C for 10 min. An aliquot (20 μl) of the supernatant fraction was injected into the HPLC column. […] The mobile phase comprised 25 mM phosphate buffer containing 0.02% triethylamine and 5% acetonitrile (phase A) and acetonitrile (phase B), delivered at a flow rate of 1 ml/min. […] Given the favorable sensitivities of these assays, rates of metabolite formation below the lower limits of quantification may be considered negligible.
as §5

WT CYP2C9 [7] = target: T1, WT CYP2C9; assay: in vitro; conditions: pH 7.4, Km, flurbiprofen 4′-hydroxylation
Method: as §6, §5

[8] = test system: CYP2C9 Phe114 substituted with Ile and Leu; conditions: Phe114Ile and Phe114Leu vs WT; cited from earlier work
recombinant CYP2C9 = conditions: cited from earlier work
[9] = healthy volunteers; cited from earlier work
WT CYP2C9 [10] = target: T1, WT CYP2C9; conditions: dapsone 100 μM
Method: Incubations were performed in phosphate buffer (100 μl; 0.1 M, pH 7.4) and contained WT or mutant CYP2C9 protein, 3 pmol/ml. […] After preincubation at 37 °C for 5 min, reactions were initiated by the addition of NADPH (1 mM final concentration) containing MgCl2 (4 mM). Following incubation at 37 °C for 30 min, reactions were terminated by the addition of 11.6 M HClO4 (1 μl). Samples were cooled on ice and then centrifuged at 5000g, 4 °C for 10 min. An aliquot (20 μl) of the supernatant fraction was injected into the HPLC column. […] The mobile phase comprised 25 mM phosphate buffer containing 0.02% triethylamine and 5% acetonitrile (phase A) and acetonitrile (phase B), delivered at a flow rate of 1 ml/min.
The mobile phase comprised 10 mM ammonium formate (pH 3) in 5% acetonitrile (mobile phase A) and acetonitrile (mobile phase B), delivered at a flow rate of 1 ml/min. The initial mobile phase composition was 80% mobile phase A and 20% mobile phase B, which was delivered for 8 min. After this time, the proportion of mobile phase B was increased to 70% over 0.1 min, and then held for 2 min before returning to the initial conditions.
Kinetic data are presented as the mean (± SD) of four separate experiments. Unless otherwise stated, metabolite formation followed sigmoidal kinetics, which was confirmed by comparison of goodness-of-fit parameters from fitting rate of metabolite formation versus substrate concentration data with the equations for empirical kinetic models (Michaelis–Menten, substrate inhibition, biphasic, and positive cooperativity) using the program GraphPad Prism version 7.01 (https://www.graphpad.com, GraphPad Software, Inc).

CYP3A [11] = conditions: semisimultaneous administration of efavirenz; cited from earlier work
CYP3A4 = test system: CYP3A4; design: method as in PMID 19752211; conditions: coadministration of gefitinib, CYP3A4-humanized mice; cited from earlier work
CYP3A [12] = conditions: monkeys coadministered quinidine; cited from earlier work
[13] = Lys206Ala vs WT CYP2C9, − dapsone

SMILES: O=C(O)Cc1ccccc1Nc1c(Cl)cccc1Cl [Diclofenac, diclofenac]
- Vmax, diclofenac 4′-hydroxylation (WT CYP2C9 [1]; + dapsone 100 μM): 3.19 ± 0.09 pmol/min/pmol P450
- CLint, diclofenac 4′-hydroxylation (WT CYP2C9 [1]; + dapsone 100 μM): 1.99 ± 0.17 μL/min/pmol P450
- Km at 7 min (WT CYP2C9 [1]; + dapsone 100 μM): 1.6 ± 0.15 µM
- Km at 7 min (WT CYP2C9 [1]; − dapsone): 2.18 ± 0.16 µM
- Vmax, diclofenac 4′-hydroxylation (WT CYP2C9 [1]; − dapsone): 5.20 ± 0.13 pmol/min/pmol P450
- CLint, diclofenac 4′-hydroxylation (WT CYP2C9 [1]; − dapsone): 2.39 ± 0.16 μL/min/pmol P450
- Vmax, diclofenac 4′-hydroxylation (CYP2C9 Lys206Ala mutant [2]; + dapsone 100 μM): 4.41 ± 0.12 pmol/min/pmol P450
- CLint, diclofenac 4′-hydroxylation (CYP2C9 Lys206Ala mutant [2]; + dapsone 100 μM): 1.81 ± 0.07 μL/min/pmol P450
- Km at 7 min (CYP2C9 Lys206Ala mutant [2]; + dapsone 100 μM): 2.45 ± 0.13 µM
- Km at 7 min (CYP2C9 Lys206Ala mutant [2]; − dapsone): 4.05 ± 0.35 µM
- Vmax, diclofenac 4′-hydroxylation (CYP2C9 Lys206Ala mutant [2]; − dapsone): 6.53 ± 0.19 pmol/min/pmol P450
- CLint, diclofenac 4′-hydroxylation (CYP2C9 Lys206Ala mutant [2]; − dapsone): 1.64 ± 0.10 μL/min/pmol P450
- reduction of CLint for diclofenac 4′-hydroxylation (abolished or reduced) [3]: ≥ 89%

SMILES: C[C@H](C(=O)O)c1ccc(-c2ccccc2)c(F)c1 [Flurbiprofen, S-flurbiprofen]
- shift of the 4′-proton of flurbiprofen nearer to the heme Fe in the presence of dapsone (CYP2C9; T1 relaxation rates by NMR): 0.9 Å
- increase in binding affinity of flurbiprofen in the presence of dapsone (CYP2C9): approximately 60%
- Km for flurbiprofen 4′-hydroxylation, higher than WT (CYP2C9 Lys206Ala mutant [4]; [13]): 30%
- Vmax for flurbiprofen 4′-hydroxylation, lower than WT (CYP2C9 Lys206Ala mutant [4]; [13]): 37%
- intrinsic clearance (CLint) of flurbiprofen 4′-hydroxylation, lower than WT (CYP2C9 Lys206Ala mutant [4]; [13]): approximately 50%
- Vmax, flurbiprofen 4′-hydroxylation (CYP2C9 Lys206Ala mutant [4]; + dapsone 100 μM): 4.27 ± 0.11 pmol/min/pmol P450
- CLint, flurbiprofen 4′-hydroxylation (CYP2C9 Lys206Ala mutant [4]; + dapsone 100 μM): 0.66 ± 0.03 μL/min/pmol P450
- Vmax, flurbiprofen 4′-hydroxylation (CYP2C9 Lys206Ala mutant [4]; − dapsone): 3.21 ± 0.14 pmol/min/pmol P450
- CLint, flurbiprofen 4′-hydroxylation (CYP2C9 Lys206Ala mutant [4]; − dapsone): 0.20 ± 0.01 μL/min/pmol P450
- estimate of the shift in the SOM–heme Fe distance of flurbiprofen with dapsone (CYP2C9 homology model): 0.5 Å
- Km at 30 min (CYP2C9 Lys206Ala mutant [5]; + dapsone 100 μM): 6.6 ± 0.3 µM
- Km at 30 min (CYP2C9 Lys206Ala mutant [5]; − dapsone): 16.2 ± 0.6 µM
- Vmax, flurbiprofen 4′-hydroxylation (WT CYP2C9 [6]; + dapsone 100 μM): 5.30 ± 0.09 pmol/min/pmol P450
- CLint, flurbiprofen 4′-hydroxylation (WT CYP2C9 [6]; + dapsone 100 μM): 0.946 ± 0.033 μL/min/pmol P450
- CLint, flurbiprofen 4′-hydroxylation (WT CYP2C9 [6]; − dapsone): 0.407 ± 0.01 μL/min/pmol P450
- Vmax, flurbiprofen 4′-hydroxylation (WT CYP2C9 [6]; − dapsone, mean ± SD): 5.05 pmol/min/pmol P450 and 5.05 ± 0.08 pmol/min/pmol P450
- Km at 30 min (WT CYP2C9 [7]; + dapsone 100 μM): 5.6 ± 0.31 µM
- Km at 30 min (WT CYP2C9 [7]; − dapsone, mean ± SD, four experiments): 12.4 ± 0.44 µM

SMILES: CC(=O)C[C@@H](c1ccccc1)c1c(O)c2ccccc2oc1=O [S-warfarin]
- reduction of CLint for S-warfarin 7-hydroxylation (abolished or reduced) [8]: ≥ 89%

SMILES: Nc1ccc(S(=O)(=O)c2ccc(N)cc2)cc1 [dapsone]
- increase in Vmax of flurbiprofen 4′-hydroxylation by dapsone (recombinant CYP2C9; WT CYP2C9, earlier study): ~60%
- dapsone concentration giving maximum activation (recombinant CYP2C9; flurbiprofen 4′-hydroxylation, naproxen O-demethylation, piroxicam 5′-hydroxylation, confirmed here with naproxen (data not shown)): 100 µM
- increase in flurbiprofen exposure on coadministration of dapsone [9]: 10%
- effect of dapsone on Vmax of flurbiprofen 4′-hydroxylation (WT CYP2C9 [6]; WT CYP2C9, dapsone 100 μM): unaffected; also recorded: without significantly affecting
- increase in catalytic efficiency (CLint) of flurbiprofen 4′-hydroxylation by dapsone (WT CYP2C9 [6]; WT CYP2C9, dapsone 100 μM): 2.3 fold
- reduction in the Km for flurbiprofen 4′-hydroxylation by dapsone (WT CYP2C9 [6]; WT CYP2C9, dapsone 100 μM): ~60%
- decrease in the Km for naproxen demethylation by dapsone (WT CYP2C9 [10]): 70%
- increase in Vmax of naproxen demethylation by dapsone (WT CYP2C9 [10]): 4.8 fold
- increase in catalytic efficiency (CLint) of naproxen O-demethylation by dapsone (WT CYP2C9 [10]): 16.5 fold

SMILES: O=C1Nc2ccc(Cl)cc2[C@@](C#CC2CC2)(C(F)(F)F)O1 [efavirenz]
- increase in apparent oral clearance of midazolam (CYP3A [11]): 70%

SMILES: COc1cc2ncnc(Nc3ccc(F)c(Cl)c3)c2cc1OCCCN1CCOCC1 [gefitinib]
- effect on triazolam exposure (CYP3A4): significantly reduce

SMILES: C=C[C@H]1C[N@@]2CC[C@H]1C[C@@H]2[C@@H](O)c1ccnc2ccc(OC)cc12 [quinidine]
- decrease in steady-state plasma concentrations of diclofenac (CYP3A [12]): approximately 50%
